Measured values: patent US20080160108A1, “Method of treating muscular dystrophies with an inhibitor of histone deacetylase” (Centre National de la Recherche Scientifique- CNRS, a …, priority 2002, published 2008)

Columns and labels:
utrophin [1] = test: Utrophin in muscle of mdx mice injected i.p., immunofluorescence and Western blot; assay type: in vivo, mouse; settings: 200 mg/kg/day i.p. daily for 6 weeks
Protocol: Mdx mice were injected daily i.p. and for 6 weeks with 200 mg/kg/day either with butyrate or with L-arginine or with physiological serum. It is observed that the utrophin is poorly expressed in the muscle of the mdx mice injected with physiological serum used as control. […] It should be noted that the augmentation of utrophin is greater in the case of the mice injected with butyrate. The augmentation of the utrophin was quantified in Western blot.

utrophin [2] = test: Utrophin expression in myotubes of mdx mice, Western blot; assay type: cell-based, mouse; settings: myotubes of dystrophic mdx mice (line xlt), 5 mM, 48 h
Protocol: Myotubes of dystrophic mdx mice (line xlt) are treated with 5 mM of butyrate for 48 h. The augmentation of utrophin is then quantified in Western blot.

utrophin [3] = test: Utrophin in muscle of healthy OF1 mice injected i.p.; assay type: in vivo, mouse
Protocol: OF1 mice were injected daily with i.p. and for 6 weeks with 100, 200 or 300 mg/kg/day either with arginine butyrate or with physiological serum. No utrophin was observed on the membrane in the muscle of the mice injected with the physiological serum used as control (“non-treated”). […] This augmentation is dosage-dependent. The induction of utrophin under the muscular membrane is significant probably on account of an additive effect of the arginine via the NO and of the butyrate via the activation of the transcription of the utrophin gene.

N=C(N)NCCC[C@H](N)C(=O)O [L-arginine]
utrophin localisation in muscle (utrophin [1]; vs physiological serum control): the utrophin appears under the muscular membrane

CCCC(=O)O [butyrate]
augmentation of expression of utrophin (factor, intensity of Western blot bands) (utrophin [2]): 2 | augmentation of expression of utrophin (factor, intensity of Western blot bands) (utrophin [1]): 2

arginine butyrate
dose dependence of the augmentation of utrophin (utrophin [3]; OF1 mice, 100, 200 or 300 mg/kg/day i.p. daily for 6 weeks): dosage-dependent | utrophin localisation in muscle (utrophin [3]; OF1 mice, 100, 200 or 300 mg/kg/day i.p. daily for 6 weeks, vs physiological serum control): utrophin appears very clearly under the muscular membrane | quantity of utrophin (utrophin [3]; healthy muscles and mdx mouse (FIG. 4), summary statement): significantly augments the quantity of utrophin
